Measured values published in patent EP4740947A1, “PHARMACEUTICAL COMBINATION OF EGFR KINASE INHIBITOR AND C-MET KINASE INHIBITOR FOR TREATING TUMOR DISEASES” (Jiangsu AoSaiKang Pharmaceutical Co., Ltd., priority 2023, dated 2025).
Several values for one entry are separate records, joined by “and”; a condition that tells them apart may be missing. Identical values can stand only once.

Tests used:
[1] = Body weight monitoring and daily observation in the NCI-H1975-HGF xenograft model; format: in vivo
Description: 4) After inoculation, the tumor volume and weight were measured twice a week. When the average tumor volume reached about 100 mm^3, the animals were randomly divided into 4 groups according to the tumor volume and weight, each group having 3 animals. The animals were immediately administered after grouping. The day of administration was regarded as day 0. Table 3. Grouping and administration information
After inoculation, the disease attack and death of animals were observed every working day. Daily observation includes tumor growth and the effects of drugs on test animals, such as changes in activity, changes in food and water intake, weight loss, appearance changes in hair and eyes, death and other clinical symptoms.
After inoculation and before grouping, the weight of test animals was measured once a week. After grouping, the weight of the test animals was measured twice a week.

[2] = system: LD1-0025-200662 human lung cancer tissue; assay: Efficacy study in patient derived xenograft (PDX) tumor model established with LD1-0025-200662 human lung cancer tissue; format: in vivo, NU/NU mice; settings: for Complete tumor regression (%): rate of mice, observed by naked eyes on day 21; for T/C% Day 21: relative tumor proliferation rate; for T/C (%) (tumor weight): tumor weight vs vehicle
Description: NU/NU mice were subcutaneously inoculated with human lung cancer tissue LD1-0025-200662 to establish an in-vivo xenograft tumor model, and then the efficacy of the test drugs ASK-MET alone, ASK-EGFR alone, ASK-MET+ASK-EGFR in combination and RefT+ ASK-EGFR in combination in the model were evaluated.
LD1-0025-200662 (see Table 8), a patient derived human lung cancer tissue, was sub-cultured to FP3+3 passages for this efficacy test. Table 8. Xenograft tumor model
NU/NU mice, female, age: 42-62 days, weight: 18-22 g, purchased from Zhejiang Vital River Laboratory Animal Technology Co., Ltd. (Production license: SCXK(Zhe)2019-0001).
• Vehicle: 20% solutol/80% 100 mM sodium acetate buffer pH 5.5; • ASK-MET: hydrochloride of the compound of Formula (II), prepared with 20% solutol/80% 100 mM sodium acetate buffer pH 5.5, concentration: 0.1 mg/mL, 0.3 mg/mL; • ASK-EGFR: compound of Formula (I), prepared with 0.5% sodium carboxymethyl cellulose solution (0.5%CMC-Na), concentration: 2 mg/mL; • RefT: prepared with 20% solutol/80% 100 mM sodium acetate buffer pH 5.5, concentration: 0.3 mg/mL; RefT is a small-molecule MET kinase inhibitor approved by USFDA.
Immunodeficient mice were subcutaneously inoculated with LD1-0025-200662 tumor tissue, and observed continuously till tumor formation. When the tumor volume reached about 1000 mm^3, the tumor tissue was peeled off and cut into tumor tissue with a size of about 3 mm × 3 mm × 3 mm (about 50-90 mg), and inoculated subcutaneously in NU/NU mice. The inoculated mice were observed and the growth of tumor was monitored. When the average tumor volume of tumor-bearing mice reached 193.40 mm^3, the mice were randomly divided into groups, administered and observed. The tumor volume and weight of all tumor-bearing mice were measured before grouping, and the tumor-bearing mice were randomly grouped according to the measured tumor volume. According to the principle of random block design, the mice were first divided into blocks according to the tumor volume, and then the mice in each block were randomly assigned to each treatment group. Table 9. Administration and treatment
5.1 Measurement of tumor volume and weight of tumor-bearing mice: The measurement was made twice a week by using a vernier caliper, and the tumor volume was calculated by a formula V = 0.5 × a × b^2, where a and b were respectively the major and minor diameters of the tumor.
5.2 Tumor growth inhibition TGI (%)= [1-(Ti-T0) / (Vi-V0)] × 100, where Ti-T0>0; TGI (%) = [1-(Ti-T0)/ T0] × 100, where Ti-T0<0. T0 was the average tumor volume at the first administration in the treatment group, Ti was the average tumor volume at a certain measurement after administration in the treatment group, V0 was the average tumor volume at the first administration in the vehicle control group, and Vi was the average tumor volume at a certain measurement after administration in the vehicle control group.
5.3 Relative tumor proliferation rate T/C (%): The calculation formula is as follows: T/C % = TRTV / CRTV × 100 % (TRTV: RTV of the treatment group; CRTV: RTV of the negative control group). According to the results of tumor measurement, the relative tumor volume (RTV) was calculated by a formula RTV = Vt / V0, where V0 was the average tumor volume measured at the time of grouping for administration (that is, d0), Vt was the average tumor volume measured at a certain measurement, and TRTV and CRTV data of the same day was used.
5.4 Synergistic effect in combined treatment group: Jin's formula Q=E(a+b)/[Ea+Eb-Ea × Eb], where Ea was TGI of a drug alone, and Q value>1 reflected that drug combination has a synergistic effect.
5.5 After the experiment, the tumor was stripped, weighed and photographed. T/Cweight%= Tweight /Vweight × 100%, where Tweight was the average tumor weight of the compound group at the end of the experiment, and Vweight was the average tumor weight of the vehicle control group at the end of the experiment.
All data is expressed as Mean±SEM. […]

[3] = ASK-EGFR 20 mg/kg p.o. QD×21 (G2)
[4] = Day 21, ASK-EGFR 20 mg/kg p.o. QD×21 (G2)
[5] = ASK-MET 1 mg/kg p.o. QD×(D0-D7) (G3)
[6] = ASK-MET 3 mg/kg p.o. QD×(D0-D7) (G4)
[7] = Day 21, ASK-MET 1 mg/kg p.o. QD×(D0-D7) (G3)
[8] = Day 21, ASK-MET 3 mg/kg p.o. QD×(D0-D7) (G4)

For `C=CC(=O)Nc1cc(Nc2ncc(Cl)c(Nc3ccc4ccccc4c3)n2)c(OC)cc1N(C)CCN(C)C` [ASK-EGFR, N-((5-((5-chloro-4-((naphthalen-2-yl)amino))pyrimidin-2-yl)amino)-2-((N-methyl-N-dimethylaminoethyl)amino)-4-methoxyphenyl) acrylamide], the “Weight” value ([1]; Day 0, ASK-EGFR 20 mg/kg p.o. QD×15 (G4)) was 22.0 ± 0.1 g, the “Weight” value ([1]; Day 2, ASK-EGFR 20 mg/kg p.o. QD×15 (G4)) was 21.9 ± 0.2 g and the “Weight” value ([1]; Day 5, ASK-EGFR 20 mg/kg p.o. QD×15 (G4)) was 22.1 ± 0.1 g. For the same compound, the “Weight” value ([1]; Day 8, ASK-EGFR 20 mg/kg p.o. QD×15 (G4)) was 21.1 ± 0.3 g, the “Weight” value ([1]; Day 12, ASK-EGFR 20 mg/kg p.o. QD×15 (G4)) was 21.5 ± 0.6 g and the “Weight” value ([1]; Day 15, ASK-EGFR 20 mg/kg p.o. QD×15 (G4)) was 21.0 ± 0.5 g. The “Tumor volume (mm^3) (Mean ± SEM) Day 0” value [2, 3] was 169.31±14.43 mm^3, the “Tumor volume (mm^3) (Mean ± SEM) Day 21” value [2, 4] was 1239.58±146.6 mm^3 and the “Tumor weight (g) (Mean ± SEM) Day 21 after treatment” value [2, 4] was 1.19 ± 0.16 g. The “TGI% Day 21” value ([2]; Day 21 vs vehicle, ASK-EGFR 20 mg/kg p.o. QD×21 (G2)) was 1.96%, the “Complete tumor regression (%)” value [2, 3] was 0.00% and 0 (0/8) % and the “T/C% Day 21” value [2, 4] was 98.77%. For the same compound, the “T/C (%) (tumor weight)” value [2, 4] was 93.41%.
With `CC(C)(O)CN1CCC(COc2cnc(-c3cccc(Cn4c(=O)ccn5c6cc(C#N)ccc6nc45)c3)nc2)CC1` [ASK-MET] the “Weight” value ([1]; Day 0, ASK-MET 2 mg/kg p.o. QD×15 (G2)) was 20.3 ± 1.0 g, the “Weight” value ([1]; Day 2, ASK-MET 2 mg/kg p.o. QD×15 (G2)) was 20.3 ± 1.3 g and the “Weight” value ([1]; Day 5, ASK-MET 2 mg/kg p.o. QD×15 (G2)) was 20.5 ± 1.0 g. For the same compound, the “Weight” value ([1]; Day 8, ASK-MET 2 mg/kg p.o. QD×15 (G2)) was 20.8 ± 0.3 g, the “Weight” value ([1]; Day 12, ASK-MET 2 mg/kg p.o. QD×15 (G2)) was 20.8 ± 0.4 g and the “Weight” value ([1]; Day 15, ASK-MET 2 mg/kg p.o. QD×15 (G2)) was 20.5 ± 0.4 g. For the same compound, the “complete tumor regression of tumor-bearing mice (in words)” value ([2]; ASK-MET 1 mg/kg (G3)) was “varying degrees of complete tumor regression”, the “inhibition on the growth of subcutaneous xenograft tumor” value ([2]; ASK-MET 1 mg/kg (G3)) was “statistically significant inhibition” and the “complete tumor regression of tumor-bearing mice (in words)” value ([2]; ASK-MET 3 mg/kg (G4)) was “varying degrees of complete tumor regression”. The “inhibition on the growth of subcutaneous xenograft tumor” value ([2]; ASK-MET 3 mg/kg (G4)) was “statistically significant inhibition”, the “Tumor volume (mm^3) (Mean ± SEM) Day 0” value [2, 5] was 168.78±15.38 mm^3 and the “Tumor volume (mm^3) (Mean ± SEM) Day 0” value [2, 6] was 170.65±12.40 mm^3. For the same compound, the “Tumor volume (mm^3) (Mean ± SEM) Day 21” value [2, 7] was 116.01±35.11 mm^3, the “Tumor weight (g) (Mean ± SEM) Day 21 after treatment” value [2, 7] was 0.12 ± 0.04 g and the “TGI% Day 21” value ([2]; Day 21, ASK-MET 1 mg/kg p.o. QD×(D0-D7) (G3), above 100 = regression by formula of b100) was 131.27%. The “Tumor volume (mm^3) (Mean ± SEM) Day 21” value [2, 8] was 3.54±2.35 mm^3, the “Tumor weight (g) (Mean ± SEM) Day 21 after treatment” value [2, 8] was 0.01 ± 0.00 g and the “TGI% Day 21” value ([2]; Day 21, ASK-MET 3 mg/kg p.o. QD×(D0-D7) (G4), above 100 = regression by formula of b100) was 197.93%. For the same compound, the “Complete tumor regression (%)” value [2, 5] was 12.5% and 12.5 (1/8) %, the “Complete tumor regression (%)” value [2, 6] was 75% and 75 (6/8) % and the “T/C% Day 21” value [2, 7] was 9.27%. The “T/C% Day 21” value [2, 8] was 0.28%, the “T/C (%) (tumor weight)” value [2, 7] was 9.18% and the “T/C (%) (tumor weight)” value [2, 8] was 0.39%.
